Reference: patent publication US20080214606A1, “Methods for the Identification and Use of Compounds Suitable for the Treatment of Drug Resistant Cancer Cells” (The Government of the United States of America as …, priority 2004, published 2008)

These compounds were tested against ABCB1 (Homo sapiens, UniProt P08183) (assay: Correlation of ABCB1 expression with drug sensitivity across the NCI-60).
ABCB1, sequence (P08183 whole entry): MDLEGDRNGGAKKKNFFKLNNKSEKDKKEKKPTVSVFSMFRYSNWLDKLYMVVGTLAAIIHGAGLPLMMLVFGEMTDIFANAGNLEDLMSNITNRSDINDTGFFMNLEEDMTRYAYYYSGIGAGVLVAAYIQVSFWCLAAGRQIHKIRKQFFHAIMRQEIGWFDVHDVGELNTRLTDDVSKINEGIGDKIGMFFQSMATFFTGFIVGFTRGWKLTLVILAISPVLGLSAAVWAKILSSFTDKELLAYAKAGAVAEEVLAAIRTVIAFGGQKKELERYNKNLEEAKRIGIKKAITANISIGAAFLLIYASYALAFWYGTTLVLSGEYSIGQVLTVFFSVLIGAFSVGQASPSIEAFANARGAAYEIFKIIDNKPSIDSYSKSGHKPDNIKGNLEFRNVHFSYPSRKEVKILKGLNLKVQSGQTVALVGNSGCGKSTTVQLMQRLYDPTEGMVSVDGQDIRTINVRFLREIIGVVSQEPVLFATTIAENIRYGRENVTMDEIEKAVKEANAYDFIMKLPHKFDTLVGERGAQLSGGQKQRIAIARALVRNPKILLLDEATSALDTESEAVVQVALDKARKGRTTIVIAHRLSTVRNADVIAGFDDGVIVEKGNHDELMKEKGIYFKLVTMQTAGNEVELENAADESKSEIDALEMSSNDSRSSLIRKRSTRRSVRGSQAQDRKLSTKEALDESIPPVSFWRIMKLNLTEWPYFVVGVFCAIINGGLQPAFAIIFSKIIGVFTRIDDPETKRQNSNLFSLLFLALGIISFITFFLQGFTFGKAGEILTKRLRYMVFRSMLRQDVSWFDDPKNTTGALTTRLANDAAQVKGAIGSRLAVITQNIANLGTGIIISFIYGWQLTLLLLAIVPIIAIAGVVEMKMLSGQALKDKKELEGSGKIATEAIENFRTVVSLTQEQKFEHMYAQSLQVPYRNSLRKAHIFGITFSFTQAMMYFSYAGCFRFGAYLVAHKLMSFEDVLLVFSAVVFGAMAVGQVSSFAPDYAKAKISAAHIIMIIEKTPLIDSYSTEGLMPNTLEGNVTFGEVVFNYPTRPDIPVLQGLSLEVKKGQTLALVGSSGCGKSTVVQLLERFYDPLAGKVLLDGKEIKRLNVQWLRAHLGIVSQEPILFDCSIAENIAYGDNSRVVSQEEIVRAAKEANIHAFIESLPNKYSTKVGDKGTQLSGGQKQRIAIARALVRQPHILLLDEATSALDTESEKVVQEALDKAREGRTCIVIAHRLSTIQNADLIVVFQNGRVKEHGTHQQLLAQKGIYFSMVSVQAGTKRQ
Protocol: Expression levels are measured by real-time quantitative RT-PCR using the LightCycler RNA Amplification SYBR Green kit and a LightCycler machine (Roche Biochemicals, Indianapolis, Ind.). Specific oligonucleotide probes are designed for each of the ABC transporters using DNAStar Primer Select (DNASTAR Inc.), and they may be synthesized at Lofstrand Laboratories (Gaithersburg, Md.). When possible, the amplicons are designed to encompass exon-intron boundaries to avoid amplification of genomic DNA. Since the Syber Green assay detects accumulation of double stranded DNA, primers are selected (from a battery consisting of about 200 primers) that amplified a single product of the correct size.
RT-PCR is carried out on 150 ng total RNA, in the presence of 250 nM specific primers. Following reverse transcription (20 min at 50° C.), the PCR reaction consists of 45 cycles of denaturation (15 sec at 95° C.), annealing (30 sec at 58° C.), and elongation (30 sec at 72° C.). No-template (water) reaction mixtures are prepared as negative controls.
During PCR amplification, fluorescence emission is measured and recorded in real time by the LightCycler. Crossing point values are calculated, using the LightCycler software package, by the Fit Points analysis method, with baseline fluorescence set at 1. The SyberGreen assay measures accumulation of double-stranded products, and the appearance of primer dimers limits quantitation at high cycle numbers. […] The raw results are expressed as number of cycles to reach the crossing point. If the desired product is not detected, the corresponding value is adjusted to crossing points indicating no expression. To assess the contribution of experimental artifacts, selected cell lines are assessed in replicate.
Both sets are available at http://discover.nci.nih.gov. The two are combined to form a joint dataset that includes 1429 compounds.
To determine quantitatively how well the 47 genes cluster the cell lines by their tissues of origin, a statistical method is employed wherein the kappa statistic is used to indicate how well the observed clusters correspond to the nine tissue-of-origin classifications. […] To control the overall false type 1 error rate, both a step-down procedure (Westfall and Young, 1993, Resampling-Based Multiple Testing: Examples and Methods for p-value Adjustment (New York: Wiley)) and a step-up procedure (Reiner et al., 2003, Bioinformatics 19:368-375) were employed to adjust for multiple testing of all 47 genes simultaneously. In the Benjamini-Hochberg procedure the p-values are computed in the standard way by permutation, assuming that all distributions are exchangeable: the number of values in the permuted data with correlations over a threshold, divided by the number of compounds and by the number of permutations. In this analysis, the False Discovery Rate (q-value) at which each compound would be declared was calculated using the step-up procedure for positively correlated test statistics (again true because all correlations being compared are computed against the same ABC gene): in this procedure the first q-value for the largest correlation is the Bonferroni-corrected p-value for that gene; then further q-values are calculated as qj=max(pj*1429/j, qj-1). This procedure limits the expected proportion of false positives in the list 1, . . . , j to at most qj.
O=c1[nH]cc(F)c(=O)[nH]1 [5-fluorouracil, reference compound] was tested, and the “Relationship between drug sensitivity and ABCB1 expression (in words)” value was “non-correlated or positively correlated”.
In the case of O=C1C=CC(=O)c2c(O)ccc(O)c21 [NSC26647], the “Pearson's Correlation Coeff” value is reported as 0.2476.
For NC(=O)NO [NSC32065], the “Pearson's Correlation Coeff” value was 0.3336.
c1cc2n(n1)CCN2 [NSC51143] was tested, and the “Pearson's Correlation Coeff” value was 0.4328.
In the case of CCc1ccccc1N1CCN(C(=O)c2cc(OC)c(OC)c(OC)c2)CC1 [NSC56030], the “Pearson's Correlation Coeff” value is reported as 0.2372.
For NC(=S)NN=Cc1ncccc1O [NSC95678], the “Pearson's Correlation Coeff” value was 0.2475.
With C=C(C)C(=O)O[C@H]1CC2=C[C@@H](C[C@@]3(C)O[C@@H]3[C@H]3OC(=O)C(=C)[C@@H]31)OC2=O [NSC100046] the “Pearson's Correlation Coeff” value was 0.2949.
For C=C1C(=O)O[C@H]2[C@H]1[C@@H](OC(=O)C=C(C)C)CC1=C[C@@H](C[C@@]3(C)O[C@@H]23)OC1=O [NSC102817], the “Pearson's Correlation Coeff” value was 0.2813.
In the case of Cc1c(CNc2ccc(Cl)c(C(=O)NC(CC(=O)O)C(=O)O)c2)ccc2nc(N)nc(N)c12 (stereo not drawn) [NSC132483], the “Pearson's Correlation Coeff” value is reported as 0.3151.
With Nc1nc(N)c2cc(CNc3ccc(C(=O)NC(CC(=O)O)C(=O)O)c(Cl)c3)ccc2n1 (stereo not drawn) [NSC134033] the “Pearson's Correlation Coeff” value was 0.2800.
In the case of CCCCc1[nH]ccc2c(C)c3nc4ccccc4c3cc12 [NSC142055], the “Pearson's Correlation Coeff” value is reported as 0.3935.
In the case of Cc1c2cnccc2c(C)c2c1c1ccccc1n2CCOC(=O)c1ccccc1 [NSC163443], the “Pearson's Correlation Coeff” value is reported as 0.2891.
CN(Cc1cnc2nc(N)nc(N)c2n1)c1ccc(C(=O)N[C@@H](CCC(=O)O)C(=O)O)c2ccccc12 [NSC174121] was tested, and the “Pearson's Correlation Coeff” value was 0.2662.
Cc1c2ccncc2c(C)c2c1[nH]c1ccc(Cl)cc12 [NSC176326] was tested, and the “Pearson's Correlation Coeff” value was 0.3552.
For CCc1c(CNc2ccc(C(=O)NC(CC(=O)O)C(=O)O)cc2)ccc2nc(N)nc(N)c12 (stereo not drawn) [NSC184692], the “Pearson's Correlation Coeff” value was 0.2971.
For CC[C@@]1(O)C[C@H](O[C@H]2C[C@H](N(C)C)[C@H](O)[C@H](C)O2)c2c(cc3c(c2O)C(=O)c2c(O)ccc(O)c2C3=O)[C@H]1C(=O)OC [NSC267229], the “Pearson's Correlation Coeff” value was 0.3505.
In the case of COc1cccc2c1C(=O)c1c(O)c3c(c(O)c1C2=O)C[C@@](O)(C(C)=O)C[C@@H]3OC1CC(N(Cc2ccccc2)Cc2ccccc2)C(O)C(C)O1.Cl (stereo partly drawn) [NSC268242], the “Pearson's Correlation Coeff” value is reported as 0.2268.
In the case of O=C([O-])c1ccc(C(=O)[O-])c(C(=O)[O-])c1.[H+].[NH-]C1CCCCC1[NH-].[Pt+4] [NSC271674], the “Pearson's Correlation Coeff” value is reported as 0.2678.
For Cc1cc(N(CCOS(C)(=O)=O)CCOS(C)(=O)=O)ccc1C=Nc1ccc(-c2nc(Cc3ccccc3)sc2C)cc1 [NSC281817], the “Pearson's Correlation Coeff” value was 0.2646.
In the case of CCCOc1ccc(-c2nc(-c3ccc(N=Cc4ccc(N(CCOS(C)(=O)=O)CCOS(C)(=O)=O)cc4C)cc3)cs2)cc1 [NSC281818], the “Pearson's Correlation Coeff” value is reported as 0.2476.
Nc1ncnc2c1nc(Cl)n2[C@@H]1O[C@@H]2COP(=O)(O)O[C@H]2[C@H]1O [NSC284751] was tested, and the “Pearson's Correlation Coeff” value was 0.2759.
With C=C1C(=O)O[C@@H]2C[C@H]1CC[C@]1(C)O[C@H]1CC/C(C)=C/CC[C@]2(C)O [NSC285706] the “Pearson's Correlation Coeff” value was 0.3654.
For CC(C)(C)N1CC1CNC(=O)C(=O)NCC1CN1C(C)(C)C (stereo not drawn) [NSC298276], the “Pearson's Correlation Coeff” value was 0.3398.
In the case of CN(C)CCN1C(=O)c2cccc3cc([N+](=O)[O-])cc(c23)C1=O [NSC300288], the “Pearson's Correlation Coeff” value is reported as 0.2734.
With CCc1nc(N)nc(N)c1-c1ccc(Cl)c([N+](=O)[O-])c1 [NSC302325] the “Pearson's Correlation Coeff” value was 0.2979.
For CCc1nc(N)nc(N)c1-c1ccc(Cl)c(N=[N+]=[N-])c1 [NSC319947], the “Pearson's Correlation Coeff” value was 0.3098.
CCc1nc(N)nc(N)c1-c1ccc(Cl)c(N=NN(C)C)c1 [NSC330465] was tested, and the “Pearson's Correlation Coeff” value was 0.2872.
Cc1c(-c2ccc(-c3ccccc3F)cc2)nc2ccc(F)cc2c1C(=O)O [NSC368390] was tested, and the “Pearson's Correlation Coeff” value was 0.2331.
For Nc1ccn([C@@H]2C=C(CO)[C@@H](O)[C@H]2O)c(=O)n1 [NSC375575], the “Pearson's Correlation Coeff” value was 0.2400.
With CCc1nc(N)nc(N)c1-c1ccc(NC)c([N+](=O)[O-])c1 [NSC382034] the “Pearson's Correlation Coeff” value was 0.3302.
